{"source": "paper PMC4273293", "about": "(2014)", "key": {"[1]": {"test_system": "ILPR-DNA a2 (DNA, G4) ACAGGGGTGTGGGGACAGGGGTGTGGGG", "assay": "fluorimetric titration", "conditions": "K+ 95 mM, potassium phosphate buffer, pH 7.0, 20 °C, DNA concentration in nucleotide bases, per base"}, "[2]": {"test_system": "Fa2T (DNA, G4) ACAGGGGTGTGGGGACAGGGGTGTGGGG", "assay": "FRET melting", "conditions": "K+ 10 mM, Li+ 90 mM, Na+ 10 mM; cacodylate buffer, pH 7.2; DNA 0.2 µM; ligand–DNA ratio 5.0"}, "[3]": {"test_system": "22AG (DNA, G4) AGGGTTAGGGTTAGGGTTAGGG", "assay": "CD spectroscopy (induced CD)"}, "[4]": {"test_system": "22AG (DNA, G4) AGGGTTAGGGTTAGGGTTAGGG", "assay": "fluorimetric titration", "conditions": "K+ 95 mM; 20 °C; DNA concentration in oligonucleotide"}}}
{"smiles": "C[n+]1cc(NC(=O)c2cccc(C(=O)Nc3cc4ccccc4[n+](C)c3)n2)cc2ccccc21", "values": [{"measurement": "Kb^a2", "setting": "[1]", "value": "2.4e+06", "unit": "M⁻¹"}, {"measurement": "ΔTm", "setting": "[2]", "value": "14.9 ± 0.5", "unit": "°C"}]}
{"smiles": "CN1C(=Cc2cc[n+](C)c3ccccc23)Sc2ccccc21", "values": [{"measurement": "Kb^a2", "setting": "[1]", "value": 300000, "unit": "M⁻¹"}, {"measurement": "ΔTm", "setting": "[2]", "value": "1.8 ± 0.5", "unit": "°C"}, {"measurement": "binding", "setting": "[3]", "value": "yes"}]}
{"smiles": "c1cc[n+]2cc3c(cc2c1)c1cc2cccc[n+]2cc1c1c2c[n+]4ccccc4cc2c2cc4cccc[n+]4cc2c31", "values": [{"measurement": "Kb^a2", "setting": "[1]", "value": "3.5e+06", "unit": "M⁻¹"}, {"measurement": "ΔTm", "setting": "[2]", "value": "5.8 ± 0.5", "unit": "°C"}]}
{"smiles": "CN1C=CC(=CC=C(C=Cc2cc[n+](C)c3ccccc23)C=Cc2cc[n+](C)c3ccccc23)c2ccccc21", "values": [{"measurement": "Kb^a2", "setting": "[1]", "value": 200000, "unit": "M⁻¹"}, {"measurement": "ΔTm", "setting": "[2]", "value": "3.5 ± 0.5", "unit": "°C"}, {"measurement": "Kb^22AG", "setting": "[4]", "value": 200000, "unit": "M⁻¹"}]}
{"smiles": "COc1cc2cc3c4cc(OC)c(OC)cc4cc[n+]3c(C)c2cc1OC", "values": [{"measurement": "Kb^a2", "setting": "[1]", "value": "2.5e+06", "unit": "M⁻¹"}, {"measurement": "ΔTm", "setting": "[2]", "value": "3.1 ± 0.5", "unit": "°C"}]}
{"smiles": "C[n+]1ccc(-c2c3nc(c(-c4cc[n+](C)cc4)c4ccc([nH]4)c(-c4cc[n+](C)cc4)c4nc(c(-c5cc[n+](C)cc5)c5ccc2[nH]5)C=C4)C=C3)cc1", "values": [{"measurement": "Kb^a2", "setting": "[1]", "value": "2.2e+06", "unit": "M⁻¹"}, {"measurement": "ΔTm", "setting": "[2]", "value": "6.3 ± 0.5", "unit": "°C"}]}
{"smiles": "CN1C(=CC=C(C=Cc2ccc3ccccc3[n+]2C)C=Cc2ccc3ccccc3[n+]2C)C=Cc2ccccc21", "values": [{"measurement": "Kb^a2", "setting": "[1]", "value": "2.7e+06", "unit": "M⁻¹"}, {"measurement": "ΔTm", "setting": "[2]", "value": "14.5 ± 0.5", "unit": "°C"}, {"measurement": "Kb^22AG", "setting": "[4]", "value": 200000, "unit": "M⁻¹"}]}
{"smiles": "CN1C(=CC=C(C=CC2=[N+](C)c3ccccc3C2(C)C)C=CC2=[N+](C)c3ccccc3C2(C)C)C=Cc2ccccc21", "values": [{"measurement": "Kb^a2", "setting": "[1]; site 1 of 2", "value": "1.7e+07", "unit": "M⁻¹"}, {"measurement": "ΔTm", "setting": "[2]", "value": "3.4 ± 0.5", "unit": "°C"}, {"measurement": "Kb^22AG", "setting": "[4]", "value": 390000, "unit": "M⁻¹"}]}
{"smiles": "CN1C(=CC=C(C=Cc2ccc3ccccc3[n+]2C)C=Cc2ccc3ccccc3[n+]2C)C(C)(C)c2ccccc21", "values": [{"measurement": "Kb^a2", "setting": "[1]; site 1 of 2", "value": "5.5e+06", "unit": "M⁻¹"}, {"measurement": "ΔTm", "setting": "[2]", "value": "3.7 ± 0.5", "unit": "°C"}, {"measurement": "Kb^22AG", "setting": "[4]", "value": 900000, "unit": "M⁻¹"}]}
{"smiles": "CN1C(=CC=C(C=Cc2sc3ccccc3[n+]2C)C=Cc2sc3ccccc3[n+]2C)Sc2ccccc21", "values": [{"measurement": "Kb^a2", "setting": "[1]", "value": "1.2e+06", "unit": "M⁻¹"}, {"measurement": "ΔTm", "setting": "[2]", "value": "4.9 ± 0.5", "unit": "°C"}]}
